The compounds below were run on NLRP3 inflammasome (IL-1β production in THP-1 cells) (assay: IL-1β TR-FRET Assay (percentage of inhibition at 300 nM, 6 μM or 10 μM)). Settings: Homo sapiens, THP-1, 6 μM, LPS priming, ATP activation, read-out: IL-1β inhibitory rate at 6 μM (%).
Format: cell-based, human
Protocol: The biological activity of the compound of Formula 1 with respect to NLRP3 was determined using the following in vitro method.
IL-1β TR-FRET Assay (reported as percentage of inhibition at 300 nM, 6 μM or 10 μM)
Monocytic THP-1 cells (ATCC: TIB-202) were maintained in accordance with the provider's instructions in RPMI media (Life Technologies, Cat #A10491-01); RPMI was supplemented with 10% heat inactivated fetal bovine serum (Corning, Cat #35-010-CV). The cells were differentiated into macrophages by the addition of 25 ng/mL IFN-γ (PeproTech, Cat #AF-300-02-100UG) for 24 hours at 37° C./5% CO2. Media was exchanged with fresh media with no FBS, and the cells were treated with 50 ng/mL LPS (priming step) (LPS-EK: Invivogen, Cat #tlrl-peklps). The cells were plated at 20,000 cells per well in 384-well flat-bottom cell culture plates (FALCON, Cat #353962) and were incubated for 24 hours at 37° C./5% CO2. Compounds were serially diluted (half log or 5-fold dilutions) with DMSO and were finally diluted with Media with no FBS. The compounds were added to the cells in 384-well plates (added in 1:3) and then the plates were incubated for 30 minutes at 37° C./5% CO2. The NLRP3 inflammasome was activated with the addition of 20 mM ATP (Sigma Cat #A3377-25G) and the cells were incubated for 2 hours at 37° C./5% CO2. At the end of the incubation period, 30 μL supernatant was transferred to another 384-well plate and mixed on a plate shaker for 1 minute. The supernatant was mixed with HTRF Antibody (Human IL1 beta kit, Cisbio, 62HIL1BPEH) in assay plates (Greiner Bio-One, Cat #784075) and the assay plates were incubated in shading box at room temperature for 16-24 hours. HTRF signal was measured by EnVision (Perkinelmer) in accordance with the manufacturer's instructions.
The percentage of inhibition at 300 nM, 6 μM or 10 μM in the IL-1βTR-FRET assay was calculated by the following formula: Percentage of inhibition=[1−(HTRF signaltest−HTRF signalLow)/(HTRF signalHigh−HTRF signalLow)]*100, where HTRF signaltest is the HTRF signal in the well to which test compound is added, HTRF signalLow is the HTRF signal in the well to which 3 μM MCC-950 is added, and the HTRF signalHigh is the HTRF signal in the well to which DMSO is added.

In order of rising inhibition at 6 µM:
1. CCOc1c(-n2cc3c(=O)[nH]c(CC)nc3n2)ccc(C2CC2)c1C(F)F [Example 282, 2-[4-cyclopropyl-3-(difluoromethyl)-2-ethoxyphenyl]-6-ethyl-2,5-dihydro-4H-pyrazolo[3,4-d]pyrimidin-4-one]  55%
2. Nc1ccc(-n2cc3c(=O)[nH]c(COC(F)F)nc3n2)c(C(F)F)c1 [Example 261, 2-[4-amino-2-(difluoromethyl)phenyl]-6-[(difluoromethoxy)methyl]-2,5-dihydro-4H-pyrazolo[3,4-d]pyrimidin-4-one]  80%
3. O=c1[nH]c(COC(F)F)nc2nn(-c3ccc([N+](=O)[O-])cc3C(F)F)cc12 [Example 256, 6-[(difluoromethoxy)methyl]-2-[2-(difluoromethyl)-4-nitrophenyl]-2,5-dihydro-4H-pyrazolo [3,4-d]pyrimidin-4-one]  89%
4. Cc1cc(C2CC2)cc(C)c1-n1cc2c(=O)[nH]c([C@H]3C[C@H](F)C3)nc2n1 [Example 255, 2-(4-cyclopropyl-2,6-dimethylphenyl)-6-[(1r,3r)-3-fluorocyclobutyl]-2,5-dihydro-4H-pyrazolo [3,4-d]pyrimidin-4-one]  98%
5. Cc1cc(C2CC2)cc(C)c1-n1cc2c(=O)[nH]c(CCOCc3ccccc3)nc2n1 [Example 268, 6-[2-(benzyloxy)ethyl]-2-(4-cyclopropyl-2,6-dimethylphenyl)-2,5-dihydro-4H-pyrazolo[3,4-d]pyrimidin-4-one]  98%
6. Cc1cc(C2CC2)cc(C)c1-n1cc2c(=O)[nH]c(-c3cc4n(n3)CCO4)nc2n1 [Example 270, 2-(4-cyclopropyl-2,6-dimethylphenyl)-6-(2,3-dihydropyrazolo[5,1-b][1,3]oxazol-6-yl)-2,5-dihydro-4H-pyrazolo[3,4-d]pyrimidin-4-one]  98%
7. CCc1nc2nn(-c3ccc(C4CC4)c(C(F)F)c3F)cc2c(=O)[nH]1 [Example 281, 2-[4-cyclopropyl-3-(difluoromethyl)-2-fluorophenyl]-6-ethyl-2,5-dihydro-4H-pyrazolo[3,4-d]pyrimidin-4-one]  98%
8. Cc1cc(C2CC2)cc(C)c1-n1cc2c(=O)[nH]c(C3C=COCC3)nc2n1 (stereo not drawn) [Example 306, 2-(4-cyclopropyl-2,6-dimethylphenyl)-6-(3,4-dihydro-2H-pyran-4-yl)-2,5-dihydro-4H-pyrazolo[3,4-d]pyrimidin-4-one]  98%
9. Cc1cc(C2CC2)cc(C)c1-n1cc2c(=O)[nH]c(CCO)nc2n1 [Example 276, 2-(4-cyclopropyl-2,6-dimethylphenyl)-6-(2-hydroxyethyl)-2,5-dihydro-4H-pyrazolo[3,4-d]pyrimidin-4-one]  99%
10. Cc1c(Br)c(Br)cc(C(F)F)c1-n1cc2c(=O)[nH]c(COC(F)F)nc2n1 [Example 280, 2-[3,4-dibromo-6-(difluoromethyl)-2-methylphenyl]-6-[(difluoromethoxy)methyl]-2,5-dihydro-4H-pyrazolo[3,4-d]pyrimidin-4-one]  99%
11. Cc1cc(C2CC2)cc(C)c1-n1cc2c(=O)[nH]c([C@]3(F)CCOC3)nc2n1 [Example 290, 2-(4-cyclopropyl-2,6-dimethylphenyl)-6-[(3S)-3-fluorooxolan-3-yl]-2,5-dihydro-4H-pyrazolo[3,4-d]pyrimidin-4-one or 2-(4-cyclopropyl-2,6-dimethylphenyl)-6-[(3R)-3-fluorooxolan-3-yl]-2,5-dihydro-4H-pyrazolo[3,4-d]pyrimidin-4-one]  99%
12. COc1nc2nn(-c3c(F)cc(C4CC4)cc3CC(F)F)cc2c(=O)[nH]1 [Example 309, 2-[4-cyclopropyl-2-(2,2-difluoroethyl)-6-fluorophenyl]-6-methoxy-2,5-dihydro-4H-pyrazolo [3,4-d]pyrimidin-4-one]  99%
13. CO[C@H]1C[C@@H](c2nc3nn(-c4c(C)cc(C5CC5)cc4C)cc3c(=O)[nH]2)C1 [Example 248, 2-(4-cyclopropyl-2,6-dimethylphenyl)-6-[(1s,3s)-3-methoxycyclobutyl]-2,5-dihydro-4H-pyrazolo[3,4-d]pyrimidin-4-one]  100%
14. CCOc1nc2nn(-c3c(C#N)cc(C4CC4)cc3C(F)F)cc2c(=O)[nH]1 [Example 254, 5-cyclopropyl-3-(difluoromethyl)-2-(6-ethoxy-4-oxo-4,5-dihydro-2H-pyrazolo[3,4-d]pyrimidin-2-yl)benzonitrile]  100%
15. Cc1cc(C2CC2)cc(C)c1-n1cc2c(=O)[nH]c(-c3cn4c(n3)COCC4)nc2n1 [Example 264, 2-(4-cyclopropyl-2,6-dimethylphenyl)-6-(5,6-dihydro-8H-imidazo[2,1-c][1,4]oxazin-2-yl)-2,5-dihydro-4H-pyrazolo[3,4-d]pyrimidin-4-one]  100%
16. Cc1cc(Br)cc(C(F)F)c1-n1cc2c(=O)[nH]c(COC(F)F)nc2n1 [Example 279, 2-[4-bromo-2-(difluoromethyl)-6-methylphenyl]-6-[(difluoromethoxy)methyl]-2,5-dihydro-4H-pyrazolo[3,4-d]pyrimidin-4-one]  100%
17. O=c1[nH]c(COC(F)F)nc2nn(-c3ccc(Br)cc3C(F)F)cc12 [Example 267, 2-[4-bromo-2-(difluoromethyl)phenyl]-6-[(difluoromethoxy)methyl]-2,5-dihydro-4H-pyrazolo[3,4-d]pyrimidin-4-one]  101%
18. Cc1cc(C2(F)CC2)cc(C)c1-n1cc2c(=O)[nH]c(-c3ccn(C)n3)nc2n1 [Example 292, 2-[4-(1-fluorocyclopropyl)-2,6-dimethylphenyl]-6-(1-methyl-1H-pyrazol-3-yl)-2,5-dihydro-4H-pyrazolo[3,4-d]pyrimidin-4-one]  101%
19. Cc1cc(C2CC2)cc(C)c1-n1cc2c(=O)[nH]c(C3(C)COC3)nc2n1 [Example 315, 2-(4-cyclopropyl-2,6-dimethylphenyl)-6-(3-methyloxetan-3-yl)-2,5-dihydro-4H-pyrazolo [3,4-d]pyrimidin-4-one]  101%
20. O=c1[nH]c(COC(F)F)nc2nn(-c3ccc(C4CC4)cc3C(F)F)cc12 [Example 271, 2-[4-cyclopropyl-2-(difluoromethyl)phenyl]-6-[(difluoromethoxy)methyl]-2,5-dihydro-4H-pyrazolo[3,4-d]pyrimidin-4-one]  102%
21. CCOc1nc2nn(-c3c(Br)cc(C4CC4)cc3C(F)F)cc2c(=O)[nH]1 [Example 250, 2-[2-bromo-4-cyclopropyl-6-(difluoromethyl)phenyl]-6-ethoxy-2,5-dihydro-4H-pyrazolo[3,4-d]pyrimidin-4-one]  103%
22. Cc1cc(C2CC2)cc(C)c1-n1cc2c(=O)[nH]c(CO)nc2n1 [Example 304, 2-(4-cyclopropyl-2,6-dimethylphenyl)-6-(hydroxymethyl)-2,5-dihydro-4H-pyrazolo[3,4-d]pyrimidin-4-one]  103%
23. Cc1cc(C2CC2)cc(C)c1-n1cc2c(=O)[nH]c(C(C)(F)F)nc2n1 [Example 259, 2-(4-cyclopropyl-2,6-dimethylphenyl)-6-(1,1-difluoroethyl)-2,5-dihydro-4H-pyrazolo[3,4-d]pyrimidin-4-one]  104%
24. CCOc1nc2nn(-c3c(Br)cc(Br)cc3C(F)F)cc2c(=O)[nH]1 [Example 251, 2-[2,4-dibromo-6-(difluoromethyl)phenyl]-6-ethoxy-2,5-dihydro-4H-pyrazolo[3,4-d]pyrimidin-4-one]  105%
25. CCOCc1nc2nn(-c3c(F)cc(C4CC4)cc3C(F)F)cc2c(=O)[nH]1 [Example 314, 2-[4-cyclopropyl-2-(difluoromethyl)-6-fluorophenyl]-6-(ethoxymethyl)-2,5-dihydro-4H-pyrazolo[3,4-d]pyrimidin-4-one]  105%
26. Cc1cc(C2CC2)cc(Cl)c1-n1cc2c(=O)[nH]c(COC(F)F)nc2n1 [Example 294, 2-(2-chloro-4-cyclopropyl-6-methylphenyl)-6-[(difluoromethoxy)methyl]-2,5-dihydro-4H-pyrazolo[3,4-d]pyrimidin-4-one]  106%
27. Cc1cc(C2CC2)cc(C)c1-n1cc2c(=O)[nH]c(C3=CCOCC3)nc2n1 [Example 307, 2-(4-cyclopropyl-2,6-dimethylphenyl)-6-(3,6-dihydro-2H-pyran-4-yl)-2,5-dihydro-4H-pyrazolo[3,4-d]pyrimidin-4-one]  108%
